Measurements from patent publication US9290463B2, “Radiolabeled compounds and uses thereof” (THE TRUSTEES OF COLUMBIA UNIVERSITY IN THE CITY OF NEW YORK, priority 2010, dated 2016).

What was measured:
[1] = target: human 5-HT1A receptor (Homo sapiens (Human), UniProt P08908); assay: Inhibition of [3H]-8-OH-DPAT binding in membranes from CHO-h5-HT1A cells; conditions: 5 nM [3H]-8-OH-DPAT, read-out: Binding affinity value (Ki)
Procedure: In Vitro Agonist Binding Assay.
Preparation of Membrane Fractions from CHO-h5-HT1A Cells. Membranes from CHO cells stably expressing the human 5-HT1A receptor at a density of 8 pmol/mg membrane protein with 5-HT2c receptor background were prepared. Cells were grown in DMEM/F-12 medium supplemented with 5% fatal bovine serum, 50 ig/mL geneticin, and 50 ig/mL hygromycin B in a humidified atmosphere of 5% CO2 until they reached confluence. Cells were harvested by centrifugation (800 g for 5 min) and homogenized using a polytron homogenizer (Polytron, CH-6010 Kreiens-Lu, Brinkman Instrument, Westbury, N.Y.) in buffer containing 20 mM HEPES, pH7.4, 3 mM MgCl2, and a cocktail of protease inhibitors (Sigma-Aldrich, St. Louis, Mo.) at 1:2000 dilution. The homogenate was centrifuged (Beckman Optima LE80K Ultracentrifuge) at 100 000 g for 15 min at 4° C. The pellet was suspended in the same buffer and recentrifuged. The final pellet was suspended in assay buffer containing 20 mM HEPES, pH 7.4, 3 mM MgCl2, 100 mM NaCl, and a mixture of protease inhibitors and stored at −70° C. Protein concentration was determined by detergent compatible colorimetric assay using DC Protein Assay Reagents as recommended by the manufacturer (Bio-Rad, Hercules, Calif.).
Inhibition of [^3H]-8-OH-DPAT Binding by A-D or 5-HT in Membranes. For inhibition experiments, the incubation medium consisted of 20 mM HEPES, pH 7.4, 4 mM CaCl2, 5 nM [^3H]-8-OH-DPAT, and 30 μg of membrane protein in the presence of different concentrations of […] or 5-HT. The assay mixture was incubated for 10 min at 30° C. The reaction was terminated by rapid filtration through Whatman GF/B filters followed by three washes with ice cold 20 mM HEPES buffer, pH 7.4, using a cell harvester (Brandel, M-24R Gaitherburg, Md.). Bound radioactivity was determined by liquid scintillation spectrometry (Beckman).

[2] = target: 5-HT1AR (Rattus norvegicus (Rat), UniProt P19327); assay: Endogenous changes of 5-HT measured with Compound E uptake and binding in pretreated rats; type: in vivo; conditions: for SBR (specific binding ratio) of Compound E, change versus saline / SUV of Compound E, change versus saline: hippocampus, 90 min after Compound E i.v., pretreated rats
Chain of 5-HT1AR (P19327 whole entry): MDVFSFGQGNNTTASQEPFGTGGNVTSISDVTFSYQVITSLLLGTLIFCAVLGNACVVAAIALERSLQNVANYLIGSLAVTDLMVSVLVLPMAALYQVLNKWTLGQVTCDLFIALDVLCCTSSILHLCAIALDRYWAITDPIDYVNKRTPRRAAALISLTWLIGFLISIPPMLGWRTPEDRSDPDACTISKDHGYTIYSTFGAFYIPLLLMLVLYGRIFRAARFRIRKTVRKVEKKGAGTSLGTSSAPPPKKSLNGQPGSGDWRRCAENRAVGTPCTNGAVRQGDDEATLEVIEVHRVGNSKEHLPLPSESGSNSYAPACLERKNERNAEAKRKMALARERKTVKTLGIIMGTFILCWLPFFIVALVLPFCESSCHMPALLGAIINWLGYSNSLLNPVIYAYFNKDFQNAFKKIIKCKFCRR
Procedure: Endogenous changes of 5-HT measurement with Compound E: Rats were pretreated according to the group below, injected with 0.1 MBq (0.18±0.02 nmol/kg, i.v.) of Compound E, then killed by decapitation after 90 minutes. Blood was collected from the trunk, the brain was extracted and the striatum, hippocampus, frontal cortex and cerebellum were dissected. Brain regions were dissolved, plasma was separated from the blood and radioactivity concentrations were determined.
The uptake and binding of Compound E after injection differed by treatment condition. […] Changes in the specific binding ratio (SBR=(activity in ROI−activity in Cerebellum)/activity in Cerebellum) were significant in Fenfluramine 1 and 2.

[3] = target: 5-HT1A (Rattus norvegicus (Rat), UniProt P19327); assay: Ex vivo saturation binding of Compound E in rat brain regions; conditions: hippocampus and frontal cortex, rats 90 min after i.v. injection, one binding-site model
Chain of 5-HT1A (P19327 whole entry): as above
Procedure: Ex vivo studies of compound E: Awake rats were injected in the tail vein with Compound E shown below:
Total mass injected was between 0.02 nmol/kg and 500 nmol/kg. All rats were decapitated after 90 minutes, based on time activity experiments with Compound E. The brains were extracted and brain regions were dissected, and then dissolved in Solvable (Packard). Blood was collected, and the plasma was separated. Radioactivity concentrations were determined by scintillation counting.
It was possible to saturate the 5-HT1A binding of Compound E in the frontal cortex and hippocampus. Data were best fitted with a one binding-site model. […] The cerebellum and plasma were unsaturable and no binding model could be fitted to the data.

Chain of human 5-HT1A receptor (P08908 whole entry): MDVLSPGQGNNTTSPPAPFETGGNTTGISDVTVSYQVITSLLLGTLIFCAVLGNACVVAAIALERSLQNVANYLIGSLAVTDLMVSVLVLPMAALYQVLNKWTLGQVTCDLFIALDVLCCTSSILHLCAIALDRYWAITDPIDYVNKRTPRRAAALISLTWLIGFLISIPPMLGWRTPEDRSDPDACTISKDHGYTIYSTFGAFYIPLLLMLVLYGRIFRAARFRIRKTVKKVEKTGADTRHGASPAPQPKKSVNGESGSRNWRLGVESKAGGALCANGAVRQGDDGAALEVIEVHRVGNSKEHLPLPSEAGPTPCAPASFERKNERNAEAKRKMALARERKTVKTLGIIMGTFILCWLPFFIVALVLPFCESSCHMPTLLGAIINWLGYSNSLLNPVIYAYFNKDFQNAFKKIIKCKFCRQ

Cn1c(=O)cnn(CCCCN2CCN(c3cccc(Br)n3)CC2)c1=O
Ki [1]: 4 nM

CCNC(C)Cc1cccc(C(F)(F)F)c1 (centres unmarked) [Fenfluramine]
SBR (specific binding ratio) of Compound E, change versus saline [2]: +32.8%
SUV of Compound E, change versus saline [2]: −0.1%
Change in specific binding ratio of Compound E by treatment condition ([2]; in words): significant
Change in uptake of Compound E by treatment condition ([2]; in words): Significant changes in uptake

Cn1c(=O)cnn(CCCCN2CCN(c3cccc(I)n3)CC2)c1=O
Ki [1]: 5.5 nM

Cn1c(=O)cnn(CCCCN2CCN(c3ccccc3Br)CC2)c1=O
Ki [1]: 6 nM

[3H]COc1ccccc1N1CCN(CCCCn2ncc(=O)n(C)c2=O)CC1 [drawing 34]
Ki [1]: 0.15 nM

NC(Cc1ccc(Cl)cc1)C(=O)O (centres unmarked) [Single Housed + pCPA, pCPA]
SBR (specific binding ratio) of Compound E, change versus saline [2]: −15.1%
SUV of Compound E, change versus saline [2]: −14.1%
Change in uptake of Compound E by treatment condition ([2]; in words): Significant changes in uptake

Isoflurane [Isoflurane, 1-3% (Inhaled) + Saline]
SBR (specific binding ratio) of Compound E, change versus saline [2]: −4.6%
SUV of Compound E, change versus saline [2]: +52.1%
Change in uptake of Compound E by treatment condition ([2]; in words): Significant changes in uptake

[3H]COc1ccccc1N1CCN(CCCCn2ncc(=O)n(C)c2=O)CC1 [Compound E]
Kd [3]: 17 to 18 nM

CN(C)CCCC1(c2ccc(F)cc2)OCc2cc(C#N)ccc21 (centres unmarked) [Citalopram]
SBR (specific binding ratio) of Compound E, change versus saline [2]: −12.2%
SUV of Compound E, change versus saline [2]: +4.8%
